From PubChem BioAssay AID179 (DTP/NCI, 2004) come the findings set out here.

Each structure is given as a SMILES string. Calls of active or inactive are those of the source.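 Rule for the calls: active = compounds giving half or more protection of infected cells from virus-caused growth loss, again on retest; inactive = the rest.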 Where a SMILES comes first, the peptide text is derived from it. [ ]: non-standard residue; d: D form. The star is where a group is joined. NMeF = CN[CH](Cc1ccccc1)C(=O)O; NMeV = CN[CH](C(=O)O)C(C)C; Boc = CC(C)(C)OC(=O)* A value given as a limit tells only on which side of the number the result lay.

The subject of this assay is CEM cells HIV-1 protection, formazan growth assay. As to the kind of experiment: NCI AIDS Antiviral Assay. The conditions noted are these: for IC50: measured here: growth of uninfected CEM cells. Put shortly:
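CEM (human) cells, HIV-1 infected vs uninfected, 5-point dosing, formazan growth read-out. Retest threshold 50% protection.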

Take `CCCCCCCCCCCC1N=C(N)NC(CCCO)=C1C(=O)OC` (stereo unspecified): the EC50 was above 200 µM and the IC50 came to 3.47 µM.

Turning to `COc1cc2nncc(SCc3ccccc3Cl)c2cc1OC`, the EC50 is 1.45 µM and the IC50 turned out to be 51.3 µM. In the case of `COc1ccccc1NC(=O)/C(=C\N1C(=O)/C(=C/c2cc(OC)c(OC)c(OC)c2)SC1=S)C(C)=O`, the EC50 is above 100 µM and the IC50 stood at 12.9 µM. With `Cc1ccc2nc(NC(=O)C(=O)C3C(=O)NC(=S)NC3=O)sc2c1`, the EC50 was above 692 µM and the IC50 was 417 µM. As to `COc1cccc(/C=C2\SC(=S)N(/C=C(/C#N)C(N)=O)C2=O)c1O`, the EC50 was 100 µM and the IC50 came out at 112 µM.

With `O=CC[C@@H]1c2ccccc2C=C[C@]12C=CC(=O)CC2`, the EC50 is above 74.1 µM and the IC50 turned out to be 53.7 µM. As to `CC1CCCC(C(=O)CC2CC(=O)NC(=O)C2)C1=O` (stereo unspecified), the EC50 is above 200 µM and the IC50 is above 200 µM. For the molecule `CCN(CC)C(C)C(=O)Nc1cccc(Cl)c1C` (stereo unspecified), the EC50 is above 50.1 µM and the IC50 is above 50.1 µM.

For the molecule `COc1cc(N=Nc2ccccc2)c2nccc(C)c2c1N`, the outcome was inactive. Take `O=Nc1ccccc1`: the EC50 is above 200 µM and the IC50 was above 200 µM.

Consider `O=C1C(=O)N(C23CC4CC(CC(C4)C2)C3)C(=S)N1c1ccccc1`, for which the EC50 is above 200 µM and the IC50 is 110 µM.

For `COC(=O)C(C(=O)C(=O)Nc1c(Cl)cc([N+](=O)[O-])cc1Cl)c1csc(-n2nc(C3=CCCCC3)cc2-c2ccccc2)n1` (stereo unspecified), the EC50 is above 107 µM and the IC50 was above 107 µM. Consider `Cc1ccc(NC(=O)CCC(=O)C2CC(=O)CC/C2=N\NC(=O)c2cc3ccccc3cc2O)cc1C` (stereo unspecified), for which the EC50 was above 363 µM and the IC50 came to 12.9 µM. In the case of `O=C(N/C(=C\c1ccccc1[N+](=O)[O-])c1nc2ccccc2[nH]1)c1ccccc1`, the EC50 is above 49 µM and the half-maximal inhibitory concentration (IC50) was above 49 µM. Take `COC(OC)(c1ccccc1)C(I)I`: the result was inactive. In the case of `COc1ccc2c(c1OC)C1CCCCC1SCC2=O` (stereo unspecified), the EC50 was above 200 µM and the IC50 was found to be 105 µM.

On to `O=C1Oc2ccccc2C(=O)/C1=C/N1C(=O)CNC1=S`, for which the EC50 was above 200 µM and the half-inhibitory concentration (IC50) was above 200 µM. `N#C/C=C/c1cccc(Cl)c1`: the EC50 was above 60.3 µM and the IC50 was above 60.3 µM. Consider `COc1cc(-c2nnc3n2NC=C(C(=O)O)S3)cc(OC)c1OC`, for which the EC50 was above 257 µM and the IC50 is above 257 µM. Regarding `O=c1oc2ccccc2c(O)c1C(c1ccc2c(c1)OCO2)c1c(O)c2ccccc2oc1=O`, the EC50 was above 200 µM and the IC50 was 75.9 µM.

`CN(C)c1ccc(/C=C(\NC(=O)c2ccccc2)C(=O)Nc2cccc(C(=O)NCCCO)c2)cc1`: the EC50 was above 200 µM and the half-inhibitory concentration (IC50) is above 200 µM. `CSC1=C(C#N)C(=O)N(c2ccc(Cl)cc2)C(=O)C1C#N` (stereo unspecified): the EC50 was above 200 µM and the IC50 is 135 µM. `Cc1cc(=O)oc2c(C)c(O)ccc12`: the EC50 was above 138 µM and the IC50 is 97.7 µM.

For `Cc1nc(N)c(N=O)c(=O)[nH]1`, the EC50 is above 200 µM and the IC50 is above 200 µM. Consider `c1ccc(NC2(c3nnnn3C3CCCCC3)CCNCC2)cc1`, for which the EC50 is above 200 µM and the IC50 worked out at 34.7 µM. Turning to `N#C/C(=C\c1cccc(Cl)c1Cl)c1ccccc1`, the EC50 is above 24.5 µM and the IC50 is above 24.5 µM. For `CCSC(=O)C1(C)Cc2ccccc2O1` (stereo unspecified), the outcome was inactive.

On to `C=C1C(=O)C23C(O)C1CC[C@H]2C12CCCC(C)(COC(C)=O)[C@H]1[C@H](O)[C@]3(O)OC2` (stereo partly specified), for which the EC50 is above 324 µM and the IC50 was determined as 0.398 µM.

In the case of `N#C/C(=C/n1c(=S)sc2ccccc21)c1nc2ccccc2s1`, the EC50 is above 200 µM and the IC50 turned out to be 102 µM. In the case of `NNC(=O)/C(=C/c1ccc(Cl)cc1Cl)NC(=O)c1ccccc1`, the EC50 is above 135 µM and the IC50 worked out at 110 µM.

Consider `Cc1ccc(S(=O)(=O)SC(SCC(=O)c2ccc(Br)cc2)C(=O)c2ccc(Br)cc2)cc1` (stereo unspecified), for which the EC50 was above 40.7 µM and the IC50 is 38.9 µM. For `CCN(CC)c1cc(OCc2ccccc2)cc2c1[C@H]1COc3cc(OC)ccc3[C@H]1O2`, the result was inactive. Regarding `O=C1c2cc3c(cc2CC1Cc1ccc2c(c1)CCC2)CCC3` (stereo unspecified), the EC50 was above 200 µM and the half-maximal inhibitory concentration (IC50) was found to be 91.2 µM. In the case of `CC1=NN(c2ccc(S(=O)(=O)O)cc2)/C(=N/NC(N)=S)C1`, the EC50 was above 759 µM and the IC50 is 427 µM. For the molecule `CNC(=O)CCNC(=O)CCC(=O)N(C)C`, the EC50 is above 200 µM and the half-maximal inhibitory concentration (IC50) was above 200 µM. As for `CNC(=O)OCc1cnc([N+](=O)[O-])n1C`, the EC50 is above 200 µM and the IC50 is above 200 µM.

For `O=C(CC(c1ccc2c(c1)OCO2)N1CCN(C(CC(=O)c2ccc(Br)cc2)c2ccc3c(c2)OCO3)CC1)c1ccc(Br)cc1` (stereo unspecified), the EC50 is above 200 µM and the IC50 was above 200 µM. As to `NC(=O)C(O)C(O)C(N)=O` (stereo unspecified), the EC50 is above 457 µM and the IC50 is above 457 µM. For `CC(C)(C)C(=O)OCOP(=O)(OCCOCn1cnc2c(=O)[nH]c(N)nc21)OCOC(=O)C(C)(C)C`, the outcome was inactive. On the same count and under the same terms, to `O=C1C=CC(=O)C2C1Cc1ccccc1C2c1ccccc1` (stereo unspecified) belongs “inactive”; to `Cn1c2ccccc2n2c3nc4ccccc4nc3c(C#N)c12`, “inactive”.

Take `O=c1cc(O)c2c(O)cc(O)cc2o1`: the EC50 was above 200 µM and the half-maximal inhibitory concentration (IC50) was above 200 µM. Turning to `CC12CCC[C@@](C)(C(=O)O)[C@H]1CCC1=CC3(CCC12)SCCS3` (stereo partly specified), the EC50 was above 355 µM and the IC50 worked out at 57.5 µM. Consider `CC(=O)N(C)CCc1c[nH]c2ccccc12`, for which the EC50 is above 200 µM and the IC50 is above 200 µM. For the molecule `CC12CCC(c3no[n+]([O-])c31)C2(C)C` (stereo unspecified), the EC50 was above 200 µM and the IC50 came to 110 µM. As to `CCOC(=O)c1cn(C)c2c1C(=O)C(C(=O)OCC)CC(=O)N2` (stereo unspecified), the EC50 was above 288 µM and the IC50 was determined as 178 µM.

Molecule `COc1ccc(/C=C(/C#N)C(N)=O)c(OC)c1` displayed a half-maximal effective concentration (EC50) above 200 µM and an IC50 of 60.3 µM. As for `CS/C(=C\c1ccc(C(=O)c2ccc(C)cc2)n1C)S(C)=O` (stereo unspecified), the EC50 is above 200 µM and the IC50 was 12.3 µM.

Take `C[n+]1c(/C=C/c2ccc3c(c2)OCO3)ccc2ccccc21`: the EC50 was above 200 µM and the IC50 was 5.89 µM. For the molecule `CC(C)C(NC(=O)OC(C)(C)C)C(=O)N(C)C(Cc1ccccc1)C(=O)N(C)C(C(=O)O)C(C)C` (stereo not drawn) (Boc-Val-[NMeF]-[NMeV]-OH; configuration not given here), the EC50 was above 200 µM and the IC50 was above 200 µM. For `Nc1nc(Cl)cc(NCC2(CCO)CCC2)n1`, the EC50 is above 200 µM and the IC50 was determined as 138 µM.

Turning to `O=C1C[C@@H]2[C@@H](CCC23CC3)N1`, the EC50 is above 1660 µM and the IC50 is above 1660 µM. As for `Cc1ccc(/C=C/C(=O)c2c([O-])on[n+]2-c2ccccc2)cc1`, the EC50 was above 200 µM and the IC50 stood at 2.63 µM. In the same order, the values of `CCOC(=O)N1N=C(c2ccccc2)OC2(N3CCCC3)CCC(C(C)(C)C)CC12` (stereo unspecified) are 44.7 µM and 105 µM. For `Cc1ccnc2n[nH]nc12`, the EC50 was above 1860 µM and the IC50 is 372 µM. As for `CCOC(=O)/C(C#N)=N\Nc1ccc(-n2c(C)nc3ccc(Br)cc3c2=O)cc1`, the EC50 is above 182 µM and the IC50 turned out to be 75.9 µM. As to `CC(=O)OCC(=O)[C@@]12OC(C)(C)O[C@@H]1C[C@H]1[C@@H]3CC(C=O)=C4C=C(OCCCl)CC[C@]4(C)[C@@]3(F)[C@@H](O)C[C@@]12C`, the EC50 was above 200 µM and the half-maximal inhibitory concentration (IC50) worked out at 6.46 µM.

In the case of `CCOP(=O)(OCC)/C(C#N)=C/c1cccn1CC(C)C`, the EC50 is 60.3 µM and the IC50 came out at 123 µM. As to `CCOC(=O)C1C(c2ccc3c(c2)OCO3)c2c([nH][nH]c2=O)CC1(O)OCC` (stereo unspecified), the EC50 is above 200 µM and the IC50 is above 200 µM.

As for `O=C1c2ccccc2S(=O)(=O)c2cc(-c3nn[nH]n3)ccc21`, the EC50 was above 200 µM and the IC50 was above 200 µM. With `COc1ccc(/C=C/c2onc3c(=O)n(C)nc(-c4ccccc4)c23)cc1`, the EC50 is above 20 µM and the IC50 was above 20 µM. In the case of `CC1(C)CCCC(C)(C)N1[P-]C(=O)[P-]N1C(C)(C)CCCC1(C)C.[C-]#[O+].[C-]#[O+].[C-]#[O+].[C-]#[O+].[C-]#[O+].[C-]#[O+].[Fe].[Fe]` (stereo unspecified), the EC50 was above 2.24 µM and the IC50 was above 2.24 µM. Turning to `N#C/C(=C/N1C(=O)/C(=C/c2ccc([N+](=O)[O-])cc2)SC1=S)c1nc2ccccc2s1`, the EC50 is above 200 µM and the IC50 was determined as 15.5 µM.

Regarding `CCOC(=O)c1nc(SC)n(C)c1C(=O)OCC`, the EC50 was above 200 µM and the IC50 was above 200 µM.

Consider `O=C(Nc1ccc(Cl)cc1Cl)/C(Cl)=C1/Sc2ccccc2NC1=O`, for which the EC50 is above 6.76 µM and the IC50 was above 6.76 µM. As for `COC(=O)C1=C(C)NC2(C)SC1C(C)C2C(=O)OC` (stereo unspecified), the EC50 was above 871 µM and the IC50 was determined as 490 µM. As to `Brc1ccc2[nH]cc(/C=N/N3CCCCCC3)c2c1`, the EC50 is above 112 µM and the IC50 was above 112 µM. Turning to `O=C(Nc1ncnc2c1ncn2C1OC(CO)CC1F)c1ccccc1` (stereo unspecified), the result was inactive. `Cc1cc(=O)oc2cc(N(C)C)ccc12`: the EC50 was above 67.6 µM and the IC50 is 37.2 µM. Regarding `CCCCCCCCCCCCC(SCCNC(=O)CCNC(=O)C(O)C(C)(C)COP(=O)(O)OP(=O)(O)OCC1OC(n2cnc3c(N)ncnc32)C(O)C1OP(=O)(O)O)C(=O)NCC(N)=O` (stereo unspecified), the result was inactive. Consider `CCOC(=O)c1nc2cc(C(F)(F)F)ccc2nc1Nc1ccc(C(=O)OC)s1`, for which the EC50 is above 50.1 µM and the IC50 came out at 30.9 µM. The matching figures for `CC(C)(C)OC(=O)/C=C/C(=O)O/C=C/[N+](=O)[O-]`: above 200 µM and above 200 µM.

`COc1ccc(/C=C/COC(C)=O)cc1OC`: the outcome was inactive.
